The subject of one experiment is Karpas-422 cells. Nature of the experiment: Karpas-422 proliferation assay. The experiment is classed as cell-based. The settings on record: Homo sapiens, KARPAS-422, 168 h; 7 days, Cell Titer GLO. As for the experimental part:
Plate Karpas-422 cells at a density of 5000 cells/100 μL/well in 96 well, black 96-well BD BioCoat Cellware, Poly-Lysine plates (BD Biosciences, Cat#354640). 40 μL of 10 mM test compound (representing starting final concentration of 20 μM) or add 100% DMSO to a Nunc 96-Well Polypropylene MicroWell Plate (Thermo Scientific Cat# #249944). Perform serial dilutions through the transfer of 20 μL from one well to the next. Add 5 μL of compound to a 245 μL/well of growth media in a separate Nunc 96-Well Polypropylene MicroWell Plate, and stamp 11 μL of the compound/media mix onto the cell plates. Incubate cell plates at 37° C. for 7 days. Add 100 μL/well of Cell Titer GLO® reagent (Promega, Cat# G7671) to the cell plates. Shake 2 minutes and measure luminescence using a plate reader.

Experiment [1] has as its system tri-methylated H3K27 in Karpas-422 (EZH2 Y641N) cells. Nature of the experiment: H3K27Me3 cell-based ELISA, Karpas-422. As to conditions: Homo sapiens, 48 hours. As to the method:
(§1) The purpose of this assay is to evaluate the ability of a compound to inhibit the functional activity of EZH2 in cells, via measurement of levels of cell tri-methylated H3K27. Plate MDA MB-231 (EZH2 WT) or Karpas-422 (EZH2 Y641N) cells at 3500/100 μL/well (for MDA MB-231) or 5,000 cells/100 μL/well (for Karpas-422) in black 96-well BD BioCoat Cellware, Poly-Lysine plates (BD Biosciences, Cat#354640). Prepare compound plates in a Nunc™ 96-Well Polypropylene MicroWell Plate (Thermo Scientific Cat# #249944) with the addition of 40 μL/well of 10 mM compound (representing starting final concentration of 20 μM) or 40 μL DMSO, then prepare serial dilutions through the transfer of 20 μL from one well to the next. Add 5 μL of test compound to 245 μL/well of growth media in a separate Nunc™ 96-Well Polypropylene MicroWell Plate, and stamp 11 μL of the compound/media mix onto the cell plates. Place cell plates in a 37° C. incubator for 48 hours. Remove plates from the incubator, place the plates at room temperature for 15-20 minutes, and spin down the plates at 1000 rpm for 5 minutes. Fix cells with 30 μL 16% paraformaldehyde for 15 minutes at room temperature. Remove the paraformaldehyde and permeabilize cells with 100 μL/well PBS minus calcium or magnesium (−/−) containing 0.1% TRITON® X-100 for 20 minutes at room temperature. […]
On the technique in general: ELISA stands for enzyme-linked immunosorbent assay.

The subject of experiment [2] is tri-methylated H3K27 in MDA MB-231 (EZH2 WT) cells. Nature of the experiment: H3K27Me3 cell-based ELISA, MDA MB-231. As to conditions: Homo sapiens, 48 hours. As to the method: as §1
Experiment [3] concerns tumor tri-methylated H3K27 (Karpas-422 xenograft). As to the kind of experiment: ELISA-based measurement of tumor-derived tri-methylated H3K27, Karpas-422 xenograft. The experiment is classed as in vivo. The settings on record: mice, 50 mpk BID oral gavage, day 7, p<0.0001. As to the method: (§2) The purpose of this assay is to evaluate the ability of a test compound to inhibit tumor EZH2 function and EZH2-mediated tumor growth in vivo.
To acid-extract histones from tumors, place tumor sections of approximately 0.5 cm by 0.25 cm or 20-30 mg in weight in Lysing Matrix D 500×2 mL Add RNASE/DNASE-free tubes with beads for homogenization (MP Biomedicals, Cat#6913-500). Add 650 μL of Acid Lysis Buffer (0.4 N HCl containing Protease Inhibitor Cocktail Tablets (Roche; Cat#11836153001)). Homogenize tumor samples 2-3 times at speed 6 m/second for 20 seconds in a FastPrep FP120 homogenizer. Set samples on ice for 1 hour to separate. Transfer supernatants to an eppendorf tube and place on a tube rotator to lyse overnight at 4° C. Spin samples down at 8000 rpm for 10 minutes at 4° C. Transfer supernatants to a new tube and measure for protein concentration.
Add 150 μL/well of MSD Blocking Solution A (Meso Scale Discovery (MSD); final concentration of 3%) to a MULTI-SPOT® Tri-Methyl-Histone H3(K27) Singleplex plate (MSD; Cat#: N45CA-1). Shake at room temperature for 1 hour. Wash the plate with 1×MSD Tris Wash Buffer™ (MSD), (3×). Dispense 0.25 μg of tumor lysate in 25 μL Acid Lysis Buffer per well in triplicate. Shake overnight at 4° C. […] Add 150 μL/well 1×MSD® Read Buffer and measure chemoelectroluminescence using a MSD SECTOR® Imager 6000 instrument.

Experiment [4] deals with tumor TNFRSF21 gene expression (Karpas-422 xenograft). As to the kind of experiment: qPCR-based measurement of tumor-derived TNFRSF21 mRNA expression, Karpas-422 xenograft. As to conditions: 50 mpk BID oral gavage, day 7, normalized to GAPDH, p<0.0001. The experiment is classed as in vivo, mice. As for the experimental part:
as §2
To isolate RNA from tumor tissue, place tumor sections of approximately 0.5 cm by 0.25 cm or 20-30 mg in weight in Lysing Matrix D 500×2 mL Add RNASE/DNASE-free tubes with beads for homogenization (MP Biomedicals, REF: 6913-500). Add 650 μL of RLT buffer from RNeasy® Kit (Qiagen; Cat#74104). Homogenize samples 2 to 3 times at speed 6 for 20 seconds in the FastPrep FP120 homogenizer. Set samples on ice to cool for 10 minutes. Centrifuge at 13 000 rpm for 10 minutes at 4° C. Place supernatants into a QIA tube and isolate RNA using the RNeasy® Kit (Qiagen; Cat#74104).
Prepare cDNA from 3 μg of tumor RNA using the High Capacity cDNA Reverse Transcription Kit (Applied Biosystems; Cat#4368813) and incubate samples in a PCR Thermocycler using the following cycle conditions: 10 minutes at 25° C.; 2 hours at 37° C., hold at 4° C. Amplify cDNA product using Thermo Scientific ABsolute Blue QPCR ROX Mix (Applied Biosystems; Cat# AB-4139) and Taqman probes for TNFRSF21 (Applied Biosystems; Cat# Hs01560899_m1) and housekeeping gene GAPDH (Applied Biosystems; Cat# Hs02758991-g1) in the Applied Biosystems ViiA 7™ Real-Time PCR cycler. Calculate TNFRSF21 cycle threshold values and normalize to its respective sample's GAPDH levels. […]

The values that follow come from patent publication US9527837B2, “Inhibitors of EZH2” (Eli Lilly and Company, priority 2014, dated 2016).

On to `COC1CN([C@H]2CC[C@H]([C@H](C)c3scc(C(=O)NCc4c(C)cc(C)[nH]c4=O)c3C)CC2)C1` [Example 2, N-[(4,6-Dimethyl-2-oxo-1,2-dihydropyridin-3-yl)methyl]-5-{(1S)-1-[trans-4-(3-methoxyazetin-1-yl)cyclohexyl]ethyl}-4-methylthiophene-3-carboxamide], for which the IC50 with Karpas-422 cells was 0.526 µM; in experiment [1], 0.144 ± 0.232 µM; in experiment [2], 0.00902 ± 0.00269 µM.

Consider `COC1CN([C@H]2CC[C@H]([C@@H](C)c3scc(C(=O)NCc4c(C)cc(C)[nH]c4=O)c3C)CC2)C1` [Example 1, N-[(4,6-Dimethyl-2-oxo-1,2-dihydropyridin-3-yl)methyl]-5-{(1R)-1-[trans-4-(3-methoxyazetidin-1-yl)cyclohexyl]ethyl}-4-methylthiophene-3-carboxamide], for which the “inhibition of tumor methylation” value in experiment [3] was 53%. Moreover, the values for the IC50 (in the experiment with Karpas-422 cells; in experiment [1]; in experiment [2]) were 0.0497 ± 0.0339 µM, 0.00379 ± 0.00102 µM and 0.00188 ± 0.00066 µM, respectively. Further, the “increase in tumor TNFRSF21 gene expression” value in experiment [4] was 25 fold.

Usually IC50 stands for the midpoint of a concentration-inhibition curve. A low value points to greater potency.
